Assay results: the NIST ThermoML archive (doi:10.1021/je700492k)
± gives the expanded uncertainty stated by the source.

Details: 101.33 kPa, Liquid, Pycnometric method

Compound `CC(=O)CC(C)=O` [2,4-pentanedione] has a mass density (298.15 K) of 972.1 ± 0.9 kg/m3, a mass density (313.15 K) of 954 ± 0.9 kg/m3 and a mass density (328.15 K) of 939.3 ± 0.8 kg/m3.
